Data as given in patent US9302999B2, “Substituted triazoles as herbicides” (E. I. DU PONT DE NEMOURS AND COMPANY, priority 2012, dated 2016).

Test system: smartweed (ladysthumb smartweed, Polygonum persicaria)
Test: Test F pre-/postemergence: smartweed
Format: in vivo
Excerpt: Seeds of plant species selected from corn (Zea mays), soybean (Glycine max), velvetleaf (Abutilon theophrasti), lambsquarters (Chenopodium album), poinsettia, wild (wild poinsettia, Euphorbia heterophylla), pigweed, palmer (palmer pigweed, Amaranthus palmeri), waterhemp (common waterhemp, Amaranthus rudis), surinam grass (Brachiaria decumbens), crabgrass, Brazil (Brazilian crabgrass, Digitaria horizontalis), panicum, fall (fall panicum Panicum dichotomiflorum), crabgrass, large (large crabgrass, Digitaria sanguinalis), foxtail, giant (giant foxtail, Setaria faberii), foxtail, green (green foxtail Setaria viridis), goosegrass (Eleusine indica), ragweed (common ragweed, Ambrosia elatior), barnyardgrass (Echinochloa crus-galli), sandbur (southern sandbur, Cenchrus echinatus), arrowleaf sida (Sida rhombifolia), ryegrass, Italian (Italian ryegrass, Lolium multiflorum), dayflower, VA (Virginia (VA) dayflower, Commelina virginica), field bindweed (Convolvulus arvensis), cocklebur (common cocklebur, Xanthium strumarium), morningglory (Ipomoea coccinea), nightshade (eastern black nightshade, Solanum ptycanthum), kochia (Kochia scoparia), nutsedge, yellow (yellow nutsedge, Cyperus esculentus), johnsongrass (Sorghum halepense), smartweed (ladysthumb smartweed, Polygonum persicaria), and beggarticks (hairy beggarticks, Bidens pilosa), were planted into a silt loam soil and treated preemergence with test chemicals formulated in a non-phytotoxic solvent mixture which included a surfactant. At the same time, plants selected from these crop and weed species and also pigweed (Amaranthus retroflexus), waterhemp_RES1 (ALS/Triazine resistant common waterhemp, Amaranthus rudis) and waterhemp_RES2 (ALS/HPPD resistant common waterhemp, Amaranthus rudis) were planted in pots containing a planting medium comprising spaghnum peat moss, vermiculite, wetting agent and starter nutrients treated with postemergence applications of some of the test chemicals formulated in the same manner. Plants ranged in height from 2 to 18 cm for postemergence treatments (1- to 4-leaf stage).
Treated plants and controls were maintained in a greenhouse for 14 to 21 days, after which time all species were compared to controls and visually evaluated. Plant response ratings, summarized in Table E, are based on a scale of 0 to 100 where 0 is no effect and 100 is complete control. A dash (-) response means no test result.

[1] = Postemergence, 250 g ai/ha, scale 0 to 100
[2] = Postemergence, 31 g ai/ha, scale 0 to 100
[3] = Postemergence, 125 g ai/ha, scale 0 to 100
[4] = Preemergence, 16 g ai/ha, scale 0 to 100, 0 no effect, 100 complete control
[5] = Preemergence, 31 g ai/ha, scale 0 to 100, 0 no effect, 100 complete control
[6] = Preemergence, 125 g ai/ha, scale 0 to 100
[7] = Preemergence, 250 g ai/ha, scale 0 to 100

## CCc1nn(-c2ccc(C(F)(F)F)cc2)nc1Oc1ccnc(C(F)(F)F)c1 [Compound 169]
[1]
  Plant response rating, Smartweed: 35
Postemergence, 16 g ai/ha, scale 0 to 100
  Plant response rating, Smartweed: 10
[2]
  Plant response rating, Smartweed: 10
Postemergence, 62 g ai/ha, scale 0 to 100
  Plant response rating, Smartweed: 15
[3]
  Plant response rating, Smartweed: 25
[4]
  Plant response rating, Smartweed: 0
[5]
  Plant response rating, Smartweed: 0
[6]
  Plant response rating, Smartweed: 40
[7]
  Plant response rating, Smartweed: 95

## CCc1nn(-c2ccc(F)c(F)c2)nc1Oc1ccnc(C(F)(F)F)c1 [Compound 171]
[4]
  Plant response rating, Smartweed: 0
[5]
  Plant response rating, Smartweed: 0
[6]
  Plant response rating, Smartweed: 0
[7]
  Plant response rating, Smartweed: 5

## CCCc1nn(-c2ccc(F)c(F)c2)nc1Oc1ccnc(C(F)(F)F)c1 [Compound 172]
[1]
  Plant response rating, Smartweed: 70
[2]
  Plant response rating, Smartweed: 30
[3]
  Plant response rating, Smartweed: 60
[5]
  Plant response rating, Smartweed: 5
[6]
  Plant response rating, Smartweed: 50
[7]
  Plant response rating, Smartweed: 98
